“Also recorded” adds a separate entry of the source.
How the values were obtained:
dGAE [1] = molecular target: T1, dGAE (Homo sapiens, UniProt P10636); assay: sandwich ELISA epitope occlusion assay of dGAE aggregates with core region scAbs; format: biochemical; details: dGAE with DTT, 1:5 ratio, 24 h at 37° C.; total and supernatant samples
T1 construct: Recombinant tau297-391 (dGAE) was produced and purified from; made in house; host or cells: E. coli
Text: The truncated core repeat domain dGAE (297-391), is the predominant fragment that constitutes bulk of the PHF core in AD (Wischik et al, 1988). During dGAE aggregation in vitro, scAb binding regions on dGAE are ‘hidden’ or ‘occluded’ which leads to a loss of immunoreactivity in aggregation samples. Here we have shown the occlusion of binding regions in aggregated dGAE samples and the recovery of immunoreactivity in the presence of LMTM, a tau-aggregation inhibitor. For preparing the aggregates, 10 μl 10 mM DTT was added to 1000 μl 100 μM dGAE and agitated with/without LMTM (1:5 ratio) at 700 rpm for 24 h at 37° C. Following overnight agitation, one third of each sample was kept aside as ‘total’ and the rest was spun down at 16000×g for 30 min and separated into ‘supernatant’ and ‘pellet’. The pellet was then resuspended in half the original volume for further experiments. The immunoreactivities of core region specific scAbs towards dGAE aggregates formed with/without LMTM was tested using a sandwich ELISA format using a ‘E’ specific monoclonal antibody 423 mAb. […] ELISA plates were coated with 10 μg/ml 423 mAb and blocked as normal. Doubling dilutions of dGAE aggregate ‘total’, ‘supernatant’ and ‘pellet’ samples at 10 μg/ml starting concentration were added to designated wells in doubling dilutions in 1×PBS. dGAE monomer (non-aggregated) was included as assay control. […]

[2] = clinical evidence; fold lower; cited from earlier work
dGAE [3] = molecular target: T1, dGAE; assay: protease digestion (Proteinase K / Pronase E) of assembled dGAE, SDS-PAGE; format: biochemical; details: 100 μM dGAE, 10 mM DTT, ratios up to 1:5, 72 hours
Protocol: Protease digestion: 100 μM dGAE with 10 mM DTT in phosphate buffer (20 mM, pH 7.4), with or without MTC at ratios up to 1:5 was agitated at 700 rpm, 37° C. for 72 hours. 10 μg aliquots were digested with increasing concentrations of Proteinase K (PK), Pronase E (PE), or left untreated. The digestion was carried out at 37° C. for 1 hour then the reaction was stopped with 1 mM Pefabloc and samples were placed on ice for 5 minutes. Sample buffer without any reducing agent was added, incubated for 5 minutes at room temperature then loaded onto a gel.
Soluble or fibrils of dGAE (100 μM) in reducing conditions (10 mM DTT) were incubated with increasing concentrations of proteinase K or Pronase E then samples were run on SDS-PAGE.

Tau aggregation = assay: cell-based tau aggregation assay (Rickard et al., 2017); details: tau aggregation inhibition
Protocol: Selected or designed compounds may further be synthesised or obtained and tested for their ability to modulate Tau aggregation, for example in a cell-based aggregation assay as described in Rickard et al., 2017.
These compounds were assessed in a cell-based Tau aggregation assay. […] The substituents were designed to test the required strength of hydrogen bonds with the pocket, as well as optimal orientation for hydrophobic and pi interactions.

T1 sequence (P10636 614-708): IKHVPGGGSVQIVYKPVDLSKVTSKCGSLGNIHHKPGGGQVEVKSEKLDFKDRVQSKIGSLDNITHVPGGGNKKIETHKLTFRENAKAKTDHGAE

| Structure (SMILES) | immunoreactivity of core region scAbs to dGAE aggregated in presence of the compound (dGAE [1]) | effective dose relative to minimum effective dose of the oxidized MT+ form [2] | formation of protease resistant core of dGAE (dGAE [3]) | EC50 (Tau aggregation) |
| --- | --- | --- | --- | --- |
| CN(C)c1ccc2c(c1)Sc1cc(N(C)C)ccc1N2.CS(=O)(=O)O.CS(=O)(=O)O [LMTM, hydromethylthioninium mesylate] | increase in immunoreactivity; also recorded: increased binding | 20 fold |  |  |
| CN(C)c1ccc2c(c1)Sc1cc(N(C)C)ccc1N2 [LMT, leuco-methylthioninium] | loss of immunoreactivity could be prevented |  | loss of protease resistance; also recorded: prevents the formation of a protease resistant core | 96 nM |

Reference: patent publication US20230352114A1, “METHODS OF PROVIDING MODULATORS OF TAU AGGREGATION” (GTInvent Limited, priority 2020, published 2023)
